{
  "source": "patent US6214969A",
  "about": "“Luteinizing hormone releasing hormone analogs with cytotoxic moiety” (The Administrators of the Tulane Educational Fund, priority 1993, dated 2001)",
  "key": {"[1]": {"molecular_target": "T1, membrane receptors of human breast cancer cells (LHRH receptors) (Homo sapiens, UniProt P30968)", "T1 construct": "from tissue", "T1 sequence (P30968 1-328)": "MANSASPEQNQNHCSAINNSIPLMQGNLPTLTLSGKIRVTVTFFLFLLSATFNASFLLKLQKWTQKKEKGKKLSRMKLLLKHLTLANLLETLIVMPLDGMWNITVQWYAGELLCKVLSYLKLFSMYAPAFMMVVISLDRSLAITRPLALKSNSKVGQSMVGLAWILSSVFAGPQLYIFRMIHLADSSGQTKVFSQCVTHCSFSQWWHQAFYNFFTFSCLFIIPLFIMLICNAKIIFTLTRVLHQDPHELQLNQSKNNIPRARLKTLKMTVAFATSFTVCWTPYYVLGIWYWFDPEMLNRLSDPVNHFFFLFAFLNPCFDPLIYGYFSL", "test": "Receptor binding affinity for human breast cancer cell membranes, 125I-[D-Trp]6 LHRH as labelled ligand", "settings": "125I-[D-Trp]6 LHRH ligand, NB = no binding", "experimental": "Affinity for peptides to human breast cancer cell membranes is determined by using labelled LHRH and [D-Trp^6 ]LHRH. The assay is carried out similarly to that described by T. Kadar et al., Proc. Natl. Acad. Sci. USA, 85, 890-894 (1988) and M. Fekete et al., Endocrinology, 124, 946-955 (1989).\n(§1) Table 2 presents the antiovulatory activity and human breast cancer cell membrane receptor binding affinity of the claimed compounds having LHRH-inhibiting properties. The inhibitory action was determined in vivo, in 4-day cycling rats as described [A. Corbin and C. W. Beattie, Endocr. Res. Commun., 2, 1-23 (1975)]."}, "[2]": {"test_system": "MCF-7 human breast cancer cell line", "test": "Inhibition of 3H-thymidine incorporation into DNA, MCF-7", "assay_type": "cell-based", "experimental": "Ability of peptides of Formula I to inhibit incorporation of [^3 H]thymidine into DNA of monolayer cultures the human mammary tumor cell line MCF-7 is assayed as described [V. K. Sondak et al., Cancer Research, 44, 1725-1728 (1984); F. Holzel et al., J. Cancer Res. Clin. Oncol. 109, 217-226 (1985); M. Albert et al., J. Cancer Res. Clin. Oncol. 109, 210-216 (1985)].\n(§2) 200,000 cells in 200 μl of […]+2% CFBS were incubated with 1, 5 or 10 μg cytotoxic analogs for 3 hours or 23 hours then 1 μCi ^3 H-thymidine added and incubated an additional 60 min. DNA extracted with 1 N perchloric acid and the radioactivity measured."}, "[3]": {"test_system": "ovulation in 4-day cycling rats", "test": "In vivo antiovulatory activity in 4-day-cycling rats", "settings": "10 μg per rat", "experimental": "This activity of the peptides is determined in 4-day-cycling rats as described [A. Corbin and C. W. Beattie, Endocr. Res. Commun., 2, 1-23 (1975)].\nas §1"}, "[4]": {"test_system": "dispersed rat pituitary cells (LH release)", "test": "LH-releasing activity in superfused rat pituitary cell system", "assay_type": "cell-based", "settings": "Table 1; compared to that produced by 3 nM LH-RH; peptide infused 3 min", "from_the_text": "B. Greenstein, Harwood Academic Publishers, London, (1990)]."}, "[5]": {"test_system": "T47D Cell line", "test": "Inhibition of 3H-thymidine incorporation into DNA, T47D", "assay_type": "cell-based, human", "experimental": "as §2"}, "[6]": {"test_system": "SkBr-3 Cell line", "test": "Inhibition of 3H-thymidine incorporation into DNA, SkBr-3", "assay_type": "cell-based, human", "experimental": "as §2"}, "[7]": {"test_system": "MDA-MB-231 Cell Line", "test": "Inhibition of 3H-thymidine incorporation into DNA, MDA-MB-231", "assay_type": "cell-based, human", "experimental": "as §2"}, "[8]": {"test_system": "human mammary cell line MDA-MB-231", "settings": "10 μg dose; cited from earlier work"}},
  "data": [
    {"substance": "Ac-D-Nal(2)-D-Phe(4Cl)-D-Pal(3)-Ser-Arg-D-Lys(MTX)-Leu-Arg-Pro-D-Ala-NH. sub.2 [compound 29]", "values": [
      {"measurement": "Affinity Constant Ka1", "setting": "[1]; Table 2 (antagonists)", "value": 0.44, "unit": "nM⁻¹"},
      {"measurement": "Affinity Constant Ka2", "setting": "[1]; Table 2 (antagonists)", "value": 1.04, "unit": "µM⁻¹"},
      {"measurement": "% Inhibition at 24 hrs", "setting": "[2]; dose 1 μg/ml", "value": 10, "unit": "%"},
      {"measurement": "% Inhibition at 24 hrs", "setting": "[2]; dose 10 μg/ml", "value": 16, "unit": "%"},
      {"measurement": "% Ovulation Blocked", "setting": "[3]", "value": 100, "unit": "%"}
    ]},
    {"substance": "Ac-D-Nal(2)-D-Phe(4Cl)-D-Trp-Ser-Arg-D-Lys(D-Mel)-Leu-Arg-Pro-D-Ala-NH. sub.2 [compound 19]", "values": [
      {"measurement": "Affinity Constant Ka2", "setting": "[1]; Table 2 (antagonists)", "value": 32.54, "unit": "µM⁻¹"},
      {"measurement": "% Inhibition at 24 hrs", "setting": "[2]; dose 1 μg/ml", "value": 34, "unit": "%"},
      {"measurement": "% Inhibition at 24 hrs", "setting": "[2]; dose 10 μg/ml", "value": 49, "unit": "%"},
      {"measurement": "% Ovulation Blocked", "setting": "[3]", "value": 40, "unit": "%"}
    ]},
    {"substance": "Ac-D-Nal(2)-D-Phe(4Cl)-D-Trp-Ser-Tyr-D-Lys(D-Mel)-Leu-Arg-Pro-D-Ala-NH. sub.2 [compound 15]", "values": [
      {"measurement": "Affinity Constant Ka1", "setting": "[1]; Table 2 (antagonists)", "value": 3.58, "unit": "nM⁻¹"},
      {"measurement": "% Ovulation Blocked", "setting": "[3]", "value": 100, "unit": "%"}
    ]},
    {"substance": "Ac-D-Nal(2)-D-Phe(4Cl)-D-Trp-Ser-Tyr-D-Lys(MTX)-Leu-Arg-Pro-D-Ala-NH2 [compound 18]", "values": [
      {"measurement": "Affinity Constant Ka1", "setting": "[1]; Table 2 (antagonists)", "value": 3.58, "unit": "nM⁻¹"},
      {"measurement": "Affinity Constant Ka2", "setting": "[1]; Table 2 (antagonists)", "value": 1.07, "unit": "µM⁻¹"}
    ]},
    {"substance": "pGlu-His-Trp-Ser-Tyr-D-Lys(Glt-DOX)-Leu-Arg-Pro-Gly-NH2 [compound 33]", "values": [
      {"measurement": "Relative Activity (LH-releasing activity)", "setting": "[4]", "value": 12},
      {"measurement": "Affinity Constant Ka2", "setting": "[1]; Table 1 (agonists)", "value": 14.4, "unit": "µM⁻¹"},
      {"measurement": "% Inhibition at 4 hrs", "setting": "[5]; dose 1 μg/ml", "value": 32, "unit": "%"},
      {"measurement": "% Inhibition at 24 hrs", "setting": "[5]; dose 1 μg/ml", "value": 11, "unit": "%"},
      {"measurement": "% Inhibition at 4 hrs", "setting": "[5]; dose 10 μg/ml", "value": 44, "unit": "%"},
      {"measurement": "% Inhibition at 24 hrs", "setting": "[5]; dose 10 μg/ml", "value": 10, "unit": "%"},
      {"measurement": "% Inhibition at 4 hrs", "setting": "[6]; dose 1 μg/ml", "value": 27, "unit": "%"},
      {"measurement": "% Inhibition at 24 hrs", "setting": "[6]; dose 1 μg/ml", "value": 0, "unit": "%"},
      {"measurement": "% Inhibition at 4 hrs", "setting": "[6]; dose 10 μg/ml", "value": 24, "unit": "%"},
      {"measurement": "% Inhibition at 24 hrs", "setting": "[6]; dose 10 μg/ml", "value": 14, "unit": "%"},
      {"measurement": "% Inhibition at 4 hrs", "setting": "[2]; dose 1 μg/ml", "value": 19, "unit": "%"},
      {"measurement": "% Inhibition at 24 hrs", "setting": "[2]; dose 1 μg/ml", "value": 0, "unit": "%"},
      {"measurement": "% Inhibition at 4 hrs", "setting": "[2]; dose 5 μg/ml", "value": 34, "unit": "%"},
      {"measurement": "% Inhibition at 24 hrs", "setting": "[2]; dose 5 μg/ml", "value": 61, "unit": "%"},
      {"measurement": "% Inhibition at 4 hrs", "setting": "[7]; dose 1 μg/ml", "value": 20, "unit": "%"},
      {"measurement": "% Inhibition at 24 hrs", "setting": "[7]; dose 1 μg/ml", "value": 0, "unit": "%"},
      {"measurement": "% Inhibition at 4 hrs", "setting": "[7]; dose 10 μg/ml", "value": 9, "unit": "%"},
      {"measurement": "% Inhibition at 24 hrs", "setting": "[7]; dose 10 μg/ml", "value": 0, "unit": "%"}
    ]},
    {"substance": "pGlu-His-Trp-Ser-Tyr-D-Lys(MTX)-Leu-Arg-Pro-Gly-NH2 [4A]", "values": [
      {"measurement": "Affinity Constant Ka1", "setting": "[1]; Table 1 (agonists)", "value": 5.42, "unit": "nM⁻¹"},
      {"measurement": "Affinity Constant Ka2", "setting": "[1]; Table 1 (agonists)", "value": 1.59, "unit": "µM⁻¹"}
    ]},
    {"substance": "pGlu-His-Trp-Ser-Tyr-D-Lys(MTX)-Leu-Arg-Pro-Gly-NH2 [4B]", "values": [
      {"measurement": "Affinity Constant Ka1", "setting": "[1]; Table 1 (agonists)", "value": 0.63, "unit": "nM⁻¹"}
    ]},
    {"substance": "pGlu-His-Trp-Ser-Tyr-D-Lys(MTX)-Leu-Arg-Pro-Gly-NH2 [compound 4]", "values": [
      {"measurement": "% Inhibition at 4 hrs", "setting": "[5]; dose 1 μg/ml", "value": 38, "unit": "%"},
      {"measurement": "% Inhibition at 24 hrs", "setting": "[5]; dose 1 μg/ml", "value": 26, "unit": "%"},
      {"measurement": "% Inhibition at 4 hrs", "setting": "[5]; dose 10 μg/ml", "value": 54, "unit": "%"},
      {"measurement": "% Inhibition at 24 hrs", "setting": "[5]; dose 10 μg/ml", "value": 41, "unit": "%"},
      {"measurement": "% Inhibition at 4 hrs", "setting": "[6]; dose 1 μg/ml", "value": 21, "unit": "%"},
      {"measurement": "% Inhibition at 24 hrs", "setting": "[6]; dose 1 μg/ml", "value": 16, "unit": "%"},
      {"measurement": "% Inhibition at 4 hrs", "setting": "[6]; dose 10 μg/ml", "value": 36, "unit": "%"},
      {"measurement": "% Inhibition at 24 hrs", "setting": "[6]; dose 10 μg/ml", "value": 10, "unit": "%"},
      {"measurement": "% Inhibition at 4 hrs", "setting": "[7]; dose 1 μg/ml", "value": 23, "unit": "%"},
      {"measurement": "% Inhibition at 24 hrs", "setting": "[7]; dose 1 μg/ml", "value": 0, "unit": "%"},
      {"measurement": "% Inhibition at 4 hrs", "setting": "[7]; dose 10 μg/ml", "value": 31, "unit": "%"},
      {"measurement": "% Inhibition at 24 hrs", "setting": "[7]; dose 10 μg/ml", "value": 8, "unit": "%"}
    ]},
    {"substance": "pGlu-His-Trp-Ser-Tyr-D-Lys[Ahx(MTX)]-Leu-Arg-Pro-Gly-NH2 [compound 34]", "values": [
      {"measurement": "Relative Activity (LH-releasing activity)", "setting": "[4]", "value": 6.7},
      {"measurement": "Affinity Constant Ka1", "setting": "[1]; Table 1 (agonists)", "value": 4.42, "unit": "nM⁻¹"},
      {"measurement": "% Inhibition at 24 hrs", "setting": "[2]; dose 1 μg/ml", "value": 16, "unit": "%"},
      {"measurement": "% Inhibition at 24 hrs", "setting": "[2]; dose 10 μg/ml", "value": 21, "unit": "%"}
    ]},
    {"substance": "pGlu-His-Trp-Ser-Tyr-D-Lys[Ahx-A2 bu(SAL)2 (Cu)]-Leu-Arg-Pro-Gly-NH2", "values": [
      {"measurement": "inhibition of [3H]thymidine incorporation into DNA", "setting": "[8]", "value": 87, "unit": "%"}
    ]},
    {"substance": "pGlu-His-Trp-Ser-Tyr-D-Orn(MTX)-Leu-Arg-Pro-Gly-NH2 [compound 11]", "values": [
      {"measurement": "% Inhibition at 4 hrs", "setting": "[2]; dose 1 μg/ml", "value": 34, "unit": "%"},
      {"measurement": "% Inhibition at 24 hrs", "setting": "[2]; dose 1 μg/ml", "value": 7, "unit": "%"},
      {"measurement": "% Inhibition at 4 hrs", "setting": "[2]; dose 10 μg/ml", "value": 29, "unit": "%"},
      {"measurement": "% Inhibition at 24 hrs", "setting": "[2]; dose 10 μg/ml", "value": 3, "unit": "%"}
    ]}
  ]
}
